For this test, the system named is Hepatitis B Virus. Description: Hepatitis B Virus Test (HBV DNA in supernatant of Hep10A cells, PCR / Southern blot). It is filed as cell-based, human Hepatitis B Virus (HBV). The note with it: 240 h. An excerpt: Plasmids were constructed using standard recombinant DNA techniques; see Sambrook, J., et al., Molecular Cloning: A Laboratory Manual, 2nd Edition (1989), Cold Spring Harbor Press, Cold Spring Harbor, NY. Plasmid pTHBV contains a head-to-tail dimer of the human Hepatitis B Virus (HBV) genome, subtype adw, clone into the EcoR I site of pUC9. […] and subcloned into the Sal I site of pTHBV after a two base fill-in reaction with the Klenow fragment of E. coli DNA polymerase I.
HepG2 cells (human hepatoblastoma, ATCC HB 8065) were routinely passaged in growth medium consisting of EARLE'S minimal essential media (Grand Island Biological Company (GIBCO) Bethesda Research Laboratories (BRL), Life Technologies, Inc., Gathersburg, MD.) supplemented with sodium pyruvate, 10 percent fetal bovine serum, 100 units/ml penicillin, and 100 µg/ml streptomycin. Hep10A cells were derived from HepG2 cells. Briefly, HepG2 cells were seeded into 60 mm culture dishes in growth medium, and when approximately 50 percent confluent, were transfected with pTHBVneo using the calcium phosphate precipitation method described by Graham, F.L. and Van der Eb in Virology, 52, p 456-467 (1973). After four hours of post-transfection, the cells were shocked with 10 percent dimethylsulfoxide and 20 percent glucose for 5 minutes, after which they were allowed to recover for 24 horus. The transfected cells were passaged and reseeded in the presence of growth medium containing 800 µg/ml geneticin. The cells were monitored for the appearance of geneticin resistant cells. A genecitin resistant cell line was established, and routinely passaged in growth medium containing 400 µg/ml geneticin. This cell line will be referred to as Hep10A.
Hep10A cells were seeded into 96-well microtiter plates at a density of approximately 50,000 cells per well, allowed to grow to confluence, and maintained at confluence for 2 to 4 days to allow Hepatitus B Virus derivative HBV DNA levels to stabilize; see Sells, M.A., et al., J. Virol., 62, p 2836-2844 (1987) and Korba, B.E., et al., Antiviral Res., 15, p 217-228 (1991). At this time, cells were treated with 2'-deoxy-2'-fluoroarabino-5-iodouridine (FIAU) and the compound of Example 5 for 10 days, with daily changes of media containing fresh drug. FIAU was used as a positive control. On day 10, culture supernatant samples were taken and stored at 4°C until needed. PCR analysis was performed on supernatant samples using appropriate primers to amplify a 477 base pair fragment from the "a" determinant of the surface antigen gene of HBV subtype adw. Following eletrophoresis through agarose gels, the DNA was transferred to nylon membranes (Optiblot™, IBI, New Haven, CT) by capillary action (Southern, 1975) using 1X saline sodium citrate (SSC) (1X SSC=0.15 M NaCl, 0.015 M sodium citrate). After baking in vacuo for 30 minutes, the blots were hybridized for 15 to 18 hours to 1x10⁶ cpm/ml of […] the method of random priming (Feinberg and Vogelstein, 1983). Hybridization was carried out at 42°C using 50 percent N,N-dimethylformamide, 6X saline sodium phosphate ethylenediamine tetraacetic acid (SSPE), 1.0 percent sodium dodyl sulfate (SDS), and 50 µg/ml salmon sperm DNA (1X SSPE=0.18 M NaCl; […] NaH₂PO₄, pH 7.4; 1 mmol ethylene diamine tetraacetic acid (EDTA)). The hybridized blots were washed as follows: twice in 2X SSC/0.1 percent SDS at room temperature for 1 hour, once in 0.1X SSC/0.1 percent SDS at room temperature for 30 minutes, and once in 0.1x SSC/0.1 percent supplemented with SDS at 65°C for 15 minutes. The filters were exposed to x-ray film and quantitated by densitometry.

Where [1] appears, read: read-out: Percent Inhibition at Specified µg/ml conc.

Consider one molecule from patent publication EP0576227A2, “2'-Deoxy-2',2'-difluoro(2,6,8-substituted) purine nucleosides having anti-viral and anti-cancer activity and intermediates” (ELI LILLY AND COMPANY, priority 1992, dated 1993).

For the molecule `CNc1nc(N)nc2c1ncn2[C@@H]1O[C@H](CO)[C@@H](O)C1(F)F` [Example 5, 2-deoxy-2,2-difluoro-D-ribofuranosyl-1-β-(2-amino-6-methylaminopurine)], under setting [1], the inhibition at 0.1 µg/mL turned out to be 56.9%, the inhibition at 1 µg/mL worked out at 81.9%, the inhibition at 10 µg/mL worked out at 84.6% and the inhibition at 100 µg/mL worked out at 83.9%. For the same molecule, the IC50 (read-out: concentration required to inhibit HBV DNA replication by 50 percent) is under 0.1 µg/mL.
